“Also recorded” adds a separate entry of the source. Read-outs that look alike come from different tables or passages of the source. Values belong to the sequence of their own block, whether it stands above or below them. Where no end group is shown, it is not given here.
Legend:
insulin receptor [1] = target: T1, insulin receptor (Homo sapiens, UniProt P06213); assay: Whole cell receptor binding assay with 125I-labeled insulin (IM-9 cells)
T1 construct: endogenous in cells; host or cells: IM-9 human lymphocyte cell line
Procedure: After incubation, the cells were chilled, centrifuged at 2000 rpm for 10 min at 4° C., and the pellets were washed twice with an ice-cold wash buffer (10 mmol/L Tris and 150 mmol/L NaCl, pH 7.6). The pellet was counted by a gamma counter. The assays were performed at least three times for each polypeptide. […] The lower value of EC50 represents a stronger effect on promoting the binding.

[2] = target: insulin receptor tyrosine kinase (Homo sapiens, UniProt P06213); assay: Receptor binding assay by insulin receptor tyrosine kinase activity; type: biochemical; settings: poly(Glu,Tyr) substrate, [γ-32P]ATP
Procedure: The sample was placed in an ice bath for 10 minutes. Then, TCA was added thereinto to precipitate the substrate (poly(Glu,Tyr)) on a filter paper.

[3] = system: mice (BALB/c, STZ-induced, ob/ob); assay: Blood sugar reducing assay; type: in vivo; settings: 2.5×10^−9 mole/kg intraperitoneal, 150 minutes
Procedure: IRBP-1-68 (SEQ ID NO:1), the polypeptides having the segmental amino acid sequences of IRBP, and the polypeptides derived from the substitution of multiple amino acids in the segmental amino acid sequences were analyzed by a blood sugar reducing assay. […] The polypeptides (100 μl, 2.5×10^−9 mole/kg body weight) as shown in Table 11 were administrated to each mouse in an experimental group by intraperitoneal injection. Each mouse in the control group was administrated with 100 μl water. […] After 150 minutes, blood samples were collected from the mouse tails, while the blood sugar value was measured by a glucometer (ACCU-CHEK Advantage, Roche, Germany). The blood sugar values of the mice in the experimental group and control group were compared and analyzed.

[4] = system: diabetic mice (STZ-induced); assay: Glycated hemoglobin value assay; type: in vivo; settings: 1×10^−6 mole/kg oral, after 28 days
Procedure: Glycated hemoglobin value (HbAlc) is the concentration of glucose attached on red blood cells in the blood of an organism. In general, a higher concentration of blood sugar reflects a higher glycated hemoglobin value, while the glycated hemoglobin value is a standard for evaluating the effect of a medicament on treating diabetes. Therefore, in this example, the effect of the polypeptide on controlling the blood sugar values of the mice were evaluated by measuring the glycated hemoglobin value.
In the experimental group, the polypeptides (1×10^−6 mole/kg body weight, 20 μl) were orally administrated to each mouse in the experimental group. In the control group, each mouse was administrated by 20 μl water. The glycated hemoglobin value was measured after 28 days.

diabetic mice [5] = assay: Measurement of liver index; type: in vivo; settings: oral, after 28 days
Procedure: The polypeptide of IRBP-50-68 (SEQ ID NO:6) was orally administrated to the diabetic mice in the experimental group by the same method as described in Example 14. After 28 days, the liver indexes (GOT and GPT) of these mice were measured to evaluate the effect of the polypeptide on the hepato disorders caused by diabetes in diabetic mice.

diabetic mice [6] = assay: Measurement of renal index; type: in vivo; settings: oral, after 28 days, blood
Procedure: After 28 days, the kidney indexes (BUN and CRE) in the blood of these mice were measured to evaluate the effects of these polypeptides on the renal disorders caused by diabetes.

insulin receptor [7] = target: T1, insulin receptor; assay: Insulin receptor autophosphorylation assay in IM-9 cells; type: cell-based; settings: stimulated 15 min at 37° C., immunoblotting, FIG. 2
Procedure: The assay was conducted by the following steps: The human lymphocyte cell line (IM-9) was serum-starved (RPMI medium supplemented with 0.1% BSA) for 16 h and then stimulated with IRBP-1-68 (SEQ ID NO:1) for 15 min at 37° C., and washed with cold PBS. The cells were lysed to obtain about […] of total proteins, while the immunoprecipitation was conducted by the anti-insulin receptor polyclonal antibody (C-19). Then, the protein was adsorbed onto protein G-agarose beads (Gibco-BRL, Gaithersburg, Md.) for 2 h at 4° C., resolved by SDS-PAGE, and transferred to an Immobilon-P membrane by electroblotting. The membrane was incubated with antiphosphotyrosine antibody (4G10) overnight at 4° C. to conduct the immunoblotting analysis. In FIG. 2, the broader band of the immunoblotting analysis represents a higher protein expression level.

3T3-L1 adipocytes [8] = assay: Glucose uptake assay; type: cell-based; settings: 1 nM insulin plus IRBP-1-68, 30 min, [3H]-2-deoxy-D-glucose 10 min
Text: A key step for modulating blood sugar is that adipose tissue can uptake glucose from the blood and thereby, reduce blood sugar. Accordingly, this example further used 3T3-L1 adipocytes as an assay platform to conduct the glucose uptake assay. […] The cells were washed three times with ice-cold phosphate buffered saline (PBS) and then solubilized in 0.1% SDS.

3T3-L1 adipocytes [9] = assay: Microarray analysis; type: cell-based; settings: expression increased or decreased up to 2 folds
Procedure: Total RNAs were extracted from 3T3-L1 adipocytes which were or were not treated with IRBP-1-68 (SEQ ID NO:1) using RNeasy Mini kit (Qiagen, Valencia, Calif., USA). Total RNA was evaluated using Agilent 2100 bioanalyzer (Agilent Technologies, Santa Clara, Calif., USA). The RNA sample with an RNA integrity number greater than 8.0 was selected. Microarray analysis was performed as described previously (see Cheng, W. Y. et al., 2009, Comprehensive evaluation of a novel nuclear factor-κB inhibitor, quinoclamine, by transcriptomic analysis. Brit. J. Pharmacol. 157(5): 746-756; Cheng, H. M. et al., 2010, Application of bioactivity database of Chinese herbal medicine on the therapeutic prediction, drug development, and safety evaluation. J. Ethnopharmacol. 132 (2): 429-437; and Hsiang, C. Y. et al., 2009, Nuclear factor-κB bioluminescence imaging-guided transcriptomic analysis for the assessment of hoist-biomaterial interaction in vivo. Biomaterials 30 (17): 3042-3049, which are entirely incorporated hereinto by reference).

3T3-L1 adipocytes [10] = assay: Western blotting analysis of insulin signal pathway-related proteins; type: cell-based; settings: 3T3-L1 adipocytes treated 16 hours, FIG. 3
Procedure: 3T3-L1 adipocytes were cultured at 37° C. for 24 hours, treated with IRBP-1-68 (SEQ ID NO:1) for 16 hours, collected using a cell scraper after being washed with ice-cold PBS, and lysed with a 300 μl sample buffer (62.5 mM Tris-HCl, pH 6.8, 2% sodium dodecyl sulfate, 10% glycerol, 50 mM dithiothreitol, 0.1% bromophenol blue). The protein concentration of the cell lysate was determined with a Bradford method (Bio-Rad, Hercules, Calif., USA). The proteins (10 μg) were separated by SDS-PAGE and the protein bands were then transferred electrophoretically to nitrocellulose membranes (Amersham Pharmacia Biotech Inc., Piscataway, N.J., USA). Membranes were blocked in blocking buffer (20 mM Tris-HCl, pH 7.6, 140 mM NaCl, 0.1% Tween-20, 5% skim milk powder) and probed with anti-Akt, anti-phospho-Akt (Ser473), anti-phospho-Akt (Thr308), anti-phospho-PTEN (phosphatase and tensin homolog deleted on Chromosome ten) (Ser380), anti-phospho-GSK-3β (glycogensynthasekinase-3β) (Ser9), anti-phospho-Raf (Ser259), anti-phospho-PDK1 (phosphoinositide-dependent kinase 1) (Ser241) antibodies (Cell Signaling Technology, Beverly, Mass., USA). The result was shown in FIG. 3, wherein the values shown in FIG. 3 represent the intensity of the bands in western blotting analysis. A higher value represents a higher expression level of the target protein.

3T3-L1 adipocytes [11] = assay: Immunochemical analysis of GLUT4; type: cell-based; settings: FIG. 4
Procedure: Immunochemical analysis was conducted by the following method: 3T3-L1 adipocytes were cultured and fixed on a cover slide, and incubated with a 1:50 diluted mouse monoclonal antibody against GLUT4 (Millipore, Billerica, Mass., USA) at 4° C. overnight. Then, the cells were incubated with biotinylated secondary antibody (Zymed Laboratories, South San Francisco, Calif., USA) at room temperature for 20 min. Then, the slides were incubated with avidin-biotin complex reagent and stained with 3,3′-diaminobenzidine (HISTOSTAIN®-Plus Kit, Zymed Laboratories, South San Francisco, Calif., USA).

[12] = STZ-induced mice, glucose 1 g/kg

Sequence: GAAAKAVIERENPRVRVI [IRBP-17-35]
- EC50 (insulin receptor [1]): > 25000 pM

Sequence: RYKYQWFYI (optimal docking polypeptide of insulin receptor) [IRBP-9A]
- activity of insulin receptor tyrosine kinase [2]: 40.34 ± 1.94 U/ml
- blood sugar inhibition ratio [3, 12]: 34.2 ± 13.6%

Sequence: RVRVWVTERGIVARPPTIG [IRBP-50-68]
- glycated hemoglobin value [4]: 5.93 ± 0.55 %
- GOT (diabetic mice [5]): 247.89 ± 97.38
- GPT (diabetic mice [5]): 135.72 ± 30.72
- BUN (diabetic mice [6]): 107.25 ± 42.99
- CRE (diabetic mice [6]): 0.191 ± 0.12

Sequence: RYKYQWWYI (optimal docking polypeptide of insulin receptor) [IRBP-9C]
- activity of insulin receptor tyrosine kinase [2]: 44.18 ± 3.61 U/ml
- blood sugar inhibition ratio [3, 12]: 22.6 ± 9.0%

Sequence: IVARPPTIG [IRBP-60-68]
- EC50 (insulin receptor [1]): 770 ± 40 pM
- glycated hemoglobin value [4]: 5.73 ± 0.11 %
- BUN (diabetic mice [6]): 73.17 ± 29.95
- CRE (diabetic mice [6]): 0.17 ± 0.04

Sequence: RYKYQCFYI (optimal docking polypeptide of insulin receptor) [IRBP-9B]
- activity of insulin receptor tyrosine kinase [2]: 79.76±5.64 U/ml
- blood sugar inhibition ratio ([3]; BALB/c mice, glucose 4 g/kg): 61.0 ± 2.5 %

Sequence: SRCQGKSSWPQLVGSTGAAAKAVIERENPRVRAVIIKVGSGATKDFRCDRVRVWVTERGIVARPPTIG [IRBP-1-68]
- insulin receptor autophosphorylation (ratio of phosphorylated insulin receptor to insulin receptor) (insulin receptor [7]): increased along with the increment of IRBP-1-68 (SEQ ID NO:1) concentration; also recorded: can induce insulin receptor autophosphorylation
- Ratio (radioactivity, glucose uptake) (3T3-L1 adipocytes [8]): 1.79 ± 0.49
- number of the genes with changed expression level (total gene number of the pathway) (3T3-L1 adipocytes [9]; adipocytokine signal pathway): 16 (71)
- number of the genes with changed expression level (total gene number of the pathway) (3T3-L1 adipocytes [9]; insulin signal pathway): 28 (136)
- protein expression levels of insulin signal pathway-related genes (PDK-1, phosphorylated-AKt Thr 308, phosphorylated-AKt Ser 473, GLUT4) (3T3-L1 adipocytes [10]): can increase the protein expression levels
- GLUT4 expression by immunochemical staining (3T3-L1 adipocytes [11]): can promote 3T3-L1 adipocytes to express GLUT4
- blood sugar inhibition ratio ([3]; BALB/c mice, glucose 4 g/kg): 68.9 ± 0.9 %
- blood sugar inhibition ratio [3, 12]: 37.3 ± 3.8%
- blood sugar inhibition ratio ([3]; ob/ob mice, glucose 1 g/kg): 55.6 ± 12.9 %

Further lines, results first:

- EC50 (insulin receptor [1]; IM-9 cells, 16° C., 90 min): 770 ± 20 pM
Sequence: IVYQVPTIG [IRBP-MT]

- EC50 (insulin receptor [1]; IM-9 cells, 16° C., 90 min): 860 ± 50 pM
Sequence: IVARPPAIG [IRBP-MC]

- EC50 (insulin receptor [1]; IM-9 cells, 16° C., 90 min): > 25000 pM
Sequence: VIIKVGSGATKDFRCDRVR [IRBP-34-52]

- EC50 (insulin receptor [1]; IM-9 cells, 16° C., 90 min): > 25000 pM
Sequence: DFRCDRVRVWVTERGIVARPPTIG [IRBP-45-68]

- activity of insulin receptor tyrosine kinase [2]: 65.95 ± 1.74 U/ml
Sequence: RYKYQCWYI (optimal docking polypeptide of insulin receptor) [IRBP-9D]

From US8697649B2, “Polypeptides, nucleic acid molecule encoding polypeptides, and uses of polypeptides” (China Medical University, priority 2012, dated 2014)
